Measured values from US6667312B2, “Thioether substituted imidazoquinolines” (3M Innovative Properties Company, priority 2000, dated 2003).

How the values were obtained:
[1] = tested on: interferon (α); test: Cytokine Induction in Human Cells: interferon; assay type: cell-based; conditions: human PBMC, 18 to 24 hours, tested 30-0.014 μM, interferon (α) by ELISA; read-out: Lowest Effective Concentration (μM) Interferon
Source text: (§1) An in vitro human blood cell system is used to assess cytokine induction. Activity is based on the measurement of interferon and tumor necrosis factor (α) (IFN and TNF, respectively) secreted into culture media as described by Testerman et. al. In “Cytokine Induction by the Immunomodulators Imiquimod and S-27609”, Journal of Leukocyte Biology, 58, 365-372 (September, 1995).
(§2) Whole blood from healthy human donors is collected by venipuncture into EDTA vacutainer tubes. Peripheral blood mononuclear cells (PBMC) are separated from whole blood by density gradient centrifugation using Histopaque®-1077. Blood is diluted 1:1 with Dulbecco's Phosphate Buffered Saline (DPBS) or Hank's Balanced Salts Solution (HBSS). The PBMC layer is collected and washed twice with DPBS or HBSS and resuspended at 4×10^6 cells/mL in RPMI complete. The PBMC suspension is added to 48 well flat bottom sterile tissue culture plates (Costar, Cambridge, Mass. or Becton Dickinson Labware, Lincoln Park, N.J.) containing an equal volume of RPMI complete media containing test compound.
(§3) The compounds are solubilized in dimethyl sulfoxide (DMSO). The DMSO concentration should not exceed a final concentration of 1% for addition to the culture wells. The compounds are generally tested at concentrations ranging from 30-0.014 μM.
(§4) The solution of test compound is added at 60 μM to the first well containing RPMI complete and serial 3 fold dilutions are made in the wells. The PBMC suspension is then added to the wells in an equal volume, bringing the test compound concentrations to the desired range (30-0.014 μM). The final concentration of PBMC suspension is 2×10^6 cells/mL. The plates are covered with sterile plastic lids, mixed gently and then incubated for 18 to 24 hours at 37° C. in a 5% carbon dioxide atmosphere.
(§5) Following incubation the plates are centrifuged for 10 minutes at 1000 rpm (˜200× g) at 4° C. The cell-free culture supernatant is removed with a sterile polypropylene pipet and transferred to sterile polypropylene tubes. Samples are maintained at −30 to −70° C. until analysis. The samples are analyzed for interferon (α) by ELISA and for tumor necrosis factor (α) by ELISA or IGEN Assay
Interferon (α) concentration is determined by ELISA using a Human Multi-Species kit from PBL Biomedical Laboratories, New Brunswick, N.J. Results are expressed in pg/mL.
(§6) The table below lists the lowest concentration found to induce interferon and the lowest concentration found to induce tumor necrosis factor for each compound.

[2] = tested on: tumor necrosis factor (α); test: Cytokine Induction in Human Cells: tumor necrosis factor; assay type: cell-based; design: key to Lowest Effective Concentration (μM) Tumor Necrosis Factor: A “*” indicates that no induction was seen at any of the tested concentrations; conditions: human PBMC, 18 to 24 hours, tested 30-0.014 μM, TNF by ELISA or IGEN assay; for minimal effective concentration: read-out: Lowest Effective Concentration (μM) Tumor Necrosis Factor
Source text: as §1, §2, §3, §4, §5
Tumor necrosis factor (α) (TNF) concentration is determined using ELISA kits available from Biosource International, Camarillo, Calif. Alternately, the TNF concentration can be determined by Origen® M-Series Immunoassay and read on an IGEN M-8 analyzer from IGEN International, Gaithersburg, Md. The immunoassay uses a human TNF capture and detection antibody pair from Biosource International, Camarillo, Calif. Results are expressed in pg/mL.
as §6

Row | melting point | Compound | minimal effective concentration [1] | minimal effective concentration [2] | Lowest Effective Concentration (μM) Tumor Necrosis Factor [2]
1 | 199 to 202 °C | CSCCCn1c(C)nc2c(N)nc3ccccc3c21 [Example 22, 2-methyl-1-[3-(methylthio)propyl]-1H-imidazo[4,5-c]quinolin-4-amine] | 0.37 µM | 1.11 µM | –
2 | 225 to 228 °C | Cc1nc2c(N)nc3ccccc3c2n1CCCS(C)(=O)=O [Example 23, 2-methyl-1-[3-(methylsulfonyl)propyl]-1H-imidazo[4,5-c]quinolin-4-amine] | 3.33 µM | 10 µM | –
3 | 210 to 212 °C | CCc1nc2c(N)nc3ccccc3c2n1CCCSC [Example 24, 2-ethyl-1-[3-(methylthio)propyl]-1H-imidazo[4,5-c]quinolin-4-amine] | 0.12 µM | 0.37 µM | –
4 | > 250 °C | CCc1nc2c(N)nc3ccccc3c2n1CCCS(C)(=O)=O [Example 25, 2-ethyl-1-[3-(methylsulfonyl)propyl]-1H-imidazo[4,5-c]quinolin-4-amine] | 0.37 µM | 3.33 µM | –
5 | 190 to 193 °C | CSCCCCn1c(C)nc2c(N)nc3ccccc3c21 [Example 26, 2-methyl-1-[4-(methylthio)butyl]-1H-imidazo[4,5-c]quinolin-4-amine] | 0.04 µM | 0.37 µM | –
6 | 184 to 187 °C | Cc1nc2c(N)nc3ccccc3c2n1CCCC[S+](C)[O-] (stereo not drawn) [Example 27, 2-methyl-1-[4-(methylsulfinyl)butyl]-1H-imidazo[4,5-c]quinolin-4-amine] | 3.33 µM | 10 µM | –
7 | 183 to 186 °C | CCc1nc2c(N)nc3ccccc3c2n1CCCCSC [Example 28, 2-ethyl-1-[4-(methylthio)butyl]-1H-imidazo[4,5-c]quinolin-4-amine] | 0.01 µM | 0.37 µM | –
8 | 182 to 185 °C | CCc1nc2c(N)nc3ccccc3c2n1CCCCS(C)(=O)=O [Example 29, 2-ethyl-1-[4-(methylsulfonyl)butyl]-1H-imidazo[4,5-c]quinolin-4-amine] | 0.12 µM | 3.33 µM | –
9 | 126 to 128 °C | CCCCc1nc2c(N)nc3ccccc3c2n1CCCC[S+](C)[O-] (stereo not drawn) [Example 31, 2-butyl-1-[4-(methylsulfinyl)butyl]-1H-imidazo[4,5-c]quinolin-4-amine] | 0.04 µM | 0.12 µM | –

The next lines start with the molecule.

Row | Compound | melting point | minimal effective concentration [1] | minimal effective concentration [2] | Lowest Effective Concentration (μM) Tumor Necrosis Factor [2]
10 | CCCCc1nc2c(N)nc3ccccc3c2n1CCCCSc1ccccc1 [Example 1, 2-butyl-1-[4-(phenylthio)butyl]-1H-imidazo[4,5-c]quinolin-4-amine] | 118 to 120 °C | 0.12 µM | 0.12 µM | –
11 | CCCCc1nc2c(N)nc3ccccc3c2n1CCCCS(=O)(=O)c1ccccc1 [Example 3, 2-butyl-1-[4-(phenylsulfonyl)butyl]-1H-imidazo[4,5-c]quinolin-4-amine] | 179 to 180 °C | 0.04 µM | 0.12 µM | –
12 | CCCCc1nc2c(N)nc3ccccc3c2n1CCCCSC [Example 4, 2-butyl-1-[4-(methylthio)butyl]-1H-imidazo[4,5-c]quinolin-4-amine] | 127 to 130 °C | 0.01 µM | 0.01 µM | –
13 | CCCCc1nc2c(N)nc3ccccc3c2n1CCCCS(C)(=O)=O [Example 5, 2-butyl-1-[4-(methylsulfonyl)butyl]-1H-imidazo[4,5-c]quinolin-4-amine] | 164 to 165 °C | 0.01 µM | 0.04 µM | –
14 | Nc1nc2ccccc2c2c1ncn2CCSc1ccccc1 [Example 6, 1-[2-(phenylthio)ethyl]-1H-imidazo[4,5-c]quinolin-4-amine] | 233 to 235 °C | 3.33 µM | 10 µM | –
15 | Nc1nc2ccccc2c2c1ncn2CCCCS(=O)(=O)c1ccccc1 [Example 7, 1-[4-(phenylsulfonyl)butyl]-1H-imidazo[4,5-c]quinolin-4-amine] | 175 to 177 °C | 3.33 µM | 10 µM | –
16 | CS(=O)(=O)CCCCn1cnc2c(N)nc3ccccc3c21 [Example 8, 1-[4-(methylsulfonyl)butyl]-1H-imidazo[4,5-c]quinolin-4-amine] | 203 to 204 °C | 10 µM | – | *
17 | Nc1nc2ccccc2c2c1ncn2CCCCSc1ccccc1 [Example 9, 1-[4-(phenylthio)butyl]-1H-imidazo[4,5-c]quinolin-4-amine] | 158 to 160 °C | 3.33 µM | 3.33 µM | –
18 | CSCCCCn1cnc2c(N)nc3ccccc3c21 [Example 10, 1-[4-(methylthio)butyl]-1H-imidazo[4,5-c]quinolin-4-amine] | 163 to 164 °C | 1.11 µM | 1.11 µM | –
19 | Cc1nc2c(N)nc3ccccc3c2n1CCCCCS(C)(=O)=O [Example 12, 2-methyl-1-[5-(methylsulfonyl)pentyl]-1H-imidazo[4,5-c]quinolin-4-amine] | 235 to 240 °C | 0.12 µM | 10 µM | –
20 | CS(=O)(=O)CCCCCn1cnc2c(N)nc3ccccc3c21 [Example 14, 1-[5-(methylsulfonyl)pentyl]-1H-imidazo[4,5-c]quinolin-4-amine] | 199 to 201 °C | 3.33 µM | 10 µM | –
21 | CCCCCCc1nc2c(N)nc3ccccc3c2n1CCCCCS(C)(=O)=O [Example 15, 2-hexyl-1-[5-(methylsulfonyl)pentyl]-1H-imidazo[4,5-c]quinolin-4-amine] | 168 to 171 °C | 0.04 µM | – | *
22 | COCCc1nc2c(N)nc3ccccc3c2n1CCCCCS(C)(=O)=O [Example 16, 2-(2-methoxyethyl)-1-[5-(methylsulfonyl)pentyl]-1H-imidazo[4,5-c]quinolin-4-amine] | 158 to 160 °C | 0.01 µM | 0.04 µM | –
23 | CCCCc1nc2c(N)nc3ccccc3c2n1CCCCCSC [Example 17, 2-butyl-1-[5-(methylthio)pentyl]-1H-imidazo[4,5-c]quinolin-4-amine] | 112 to 114 °C | 0.01 µM | 0.04 µM | –
24 | CCCCc1nc2c(N)nc3ccccc3c2n1CCCCC[S+](C)[O-] (stereo not drawn) [Example 18, 2-butyl-1-[5-(methylsulfinyl)pentyl]-1H-imidazo[4,5-c]quinolin-4-amine] | 119 to 121 °C | 0.01 µM | 0.12 µM | –
25 | CCCCc1nc2c(N)nc3ccccc3c2n1CCCS(C)(=O)=O [Example 19, 2-butyl-1-[3-(methylsulfonyl)propyl]-1H-imidazo[4,5-c]quinolin-4-amine] | 233 to 236 °C | 0.04 µM | 0.37 µM | –
26 | CCCCc1nc2c(N)nc3ccccc3c2n1CCCS(=O)(=O)c1ccccc1 [Example 20, 2-butyl-1-[3-(phenylsulfonyl)propyl]-1H-imidazo[4,5-c]quinolin-4-amine] | 224 to 227 °C | 0.04 µM | 0.37 µM | –
27 | CCCc1nc2c(N)nc3ccccc3c2n1CCCCCS(C)(=O)=O [Example 21, 1-[5-(methylsulfonyl)pentyl]-2-propyl-1H-imidazo[4,5-c]quinolin-4-amine] | 179 to 181 °C | 0.12 µM | 0.37 µM | –
